In brackets after ≈: the same amount, converted by molar mass. Activity calls are given as the source filed them. The calls are words filed in the database; no cut-off is given here.
How the values were obtained:
A549 = assay: Cytotoxicity against human A549 cells assessed as cell growth inhibition at 15 ug/ml after 72 hrs by MTT assay; type: functional, cell-based
HT-29 = assay: Cytotoxicity against human HT-29 cells assessed as cell growth inhibition at 15 ug/ml after 72 hrs by MTT assay; type: functional, cell-based
MIA PaCa-2 = assay: Cytotoxicity against human MIAPaCa2 cells assessed as cell growth inhibition at 15 ug/ml after 72 hrs by MTT assay; type: functional, cell-based
HepG2 = assay: Cytotoxicity against human HepG2 cells assessed as cell growth inhibition at 15 ug/ml after 72 hrs by MTT assay; type: functional, cell-based
MCF7 = assay: Cytotoxicity against human MCF7 cells assessed as cell growth inhibition at 15 ug/ml after 72 hrs by MTT assay; type: functional, cell-based
Staphylococcus aureus = assay: Antibacterial activity against methicillin-resistant Staphylococcus aureus after 20 hrs by spectrophotometry; type: functional

Compound | growth inhibition (GI) (A549) | growth inhibition (GI) (HT-29) | growth inhibition (GI) (MIA PaCa-2) | growth inhibition (GI) (HepG2) | growth inhibition (GI) (MCF7) | MIC50 (Staphylococcus aureus)
CC1=CCC[C@]2(C)CC[C@@]3(O)[C@@H]([C@@H](C(C)C)CC[C@@H]3C)[C@H]12 | inactive | inactive | inactive | inactive | inactive | –
CC1=CCC[C@]2(C)CC[C@@H]3[C@@H]([C@@H](C(C)C)CC[C@]3(C)O)[C@H]12 | inactive | inactive | inactive | inactive | inactive | –
C=C1CCC[C@]2(C)CC[C@@]3(O)[C@@H]([C@@H](C(C)C)CC[C@@H]3C)[C@H]12 | inactive | inactive | inactive | inactive | inactive | 48 µg/mL (≈ 165 µM)
